Where two headings read alike, the source gives them in different places.
Assays:
[1] = compared with H2; cited from earlier work
[2] = system: patient with multiple system atrophy; experiment: Hydrogen water ingestion / hydrogen gas inhalation by a patient with multiple system atrophy (Case 3); format: in vivo, human; conditions: about 6.0 to 7.0% hydrogen, about 1.5 to about 2 hours every day, early stage after the start of the inhalation
Description: The hydrogen concentration in MHG-2000α is about 6.0 to 7.0% (hydrogen generation rate: about 140 ml/min).

[3] = system: Parkinson's disease patient
[4] = system: Parkinson's disease model rat; conditions: cited from earlier work
[5] = system: Parkinson's disease patient; remark: listed apart in the source
Description: A Parkinson's disease patient (medical history: about 8 years) inhaled a mixed gas of hydrogen and air using a gaseous hydrogen inhalation apparatus (MHG-2000α (registered trademark); MiZ Company Limited) for about 90 minutes per day over about 2 months. Here, the mixed gas was inhaled every 2 or 3 days over first about 3 weeks and every day over subsequent about 5 weeks. The hydrogen concentration in MHG-2000α is about 6.0 to 7.0% by volume (hydrogen generation rate: about 140 ml/min).
A Parkinson's disease patient one (medical history: about 6 years) inhaled a mixed gas of hydrogen and air using a gaseous hydrogen inhalation apparatus (MHG-2000α (registered trademark); MiZ Company Limited) for about 90 minutes or about 120 minutes per day. Here, the mixed gas was inhaled every day over about 4.5 months. The hydrogen concentration in MHG-2000α is about 6.0 to 7.0% by volume (hydrogen generation rate: about 140 ml/min).

[6] = Case 1, first inhalation for 90 minutes, about 6.0 to 7.0% by volume hydrogen
[7] = Case 2, about 4 months after the start of inhalation
[8] = Case 2, immediately after inhalation for about 90 or about 120 minutes per day, substantially every day over about 1 month

[2H][2H] [D2, deuterium]
superoxide scavenging effect [1]: higher than that of H2

[HH] [hydrogen gas, molecular hydrogen]
gait [2]: became able to walk steadily and without support
action tremors, VAS scale values of 0 to 5.0 ([3]; Case 4, about 4% by volume hydrogen, about 20 minutes every day over 3 months, FIG. 1A): evidently improved
slowness of movement, VAS scale values of 0 to 5.0 ([3]; Case 4, about 4% by volume hydrogen, about 20 minutes every day over 3 months, FIG. 1B): evidently improved
tiny step gait, VAS scale values of 0 to 5.0 ([3]; Case 4, about 4% by volume hydrogen, about 20 minutes every day over 3 months, FIG. 1C): evidently improved
slowness of movement, VAS scale values of 0 to 5.0 ([3]; Case 5, about 6.0 to 7.0% by volume hydrogen, about 1 to 3 hours every day over 3 months, FIG. 2A): evidently improved
forward-bending posture, VAS scale values of 0 to 5.0 ([3]; Case 5, about 6.0 to 7.0% by volume hydrogen, about 1 to 3 hours every day over 3 months, FIG. 2B): evidently improved
rigidity, VAS scale values of 0 to 5.0 ([3]; Case 5, about 6.0 to 7.0% by volume hydrogen, about 1 to 3 hours every day over 3 months, FIG. 2C): evidently improved
bowel movement (constipation), VAS scale values of 0 to 5.0 ([3]; Case 5, about 6.0 to 7.0% by volume hydrogen, about 1 to 3 hours every day over 3 months, FIG. 2E): evidently improved
sleep (insomnia), VAS scale values of 0 to 5.0 ([3]; Case 5, about 6.0 to 7.0% by volume hydrogen, about 1 to 3 hours every day over 3 months, FIG. 2F): evidently improved
tiny step gait, VAS scale values of 0 to 5.0 ([3]; Case 5, over three months after the start of inhalation, FIG. 2D legend): improvements
advancement of symptoms ([4]; hydrogen gas (2%) continuously breathed): the symptoms were advanced
advancement of symptoms ([4]; hydrogen gas (2%) intermittently breathed): slightly lessened
posture forward-bending in a dogleg shape ([5]; Case 1, 90 minutes after the start of first inhalation): improved to a middle between the upright state and the dogleg shape state
complexion, voice, movement, gait and the like ([5]; Case 1, about 6.0 to 7.0% by volume hydrogen, about 90 minutes per day over about 2 months): improved to be almost comparable to a healthy person
time after start of inhalation at which shaking of hands was stopped [5, 6]: about 30 minutes
time after start of inhalation at which shaking under the jaw was stopped [5, 6]: about 40 minutes
time after start of inhalation at which shaking of the hands was stopped ([5]; Case 2 (person one), first inhalation, about 6.0 to 7.0% by volume hydrogen): about 45 minutes
bending of the spine [5, 7]: reduced as compared to the symptom in the early stage
shaking of the hands and the mouth [5, 7]: too small to be recognized unless a careful observation is made
time taken for fastening buttons of clothing and for change of clothes [5, 7]: markedly shortened
bending of the waist compared to before the inhalation ([5]; Case 2, about 90 minutes after the start of first inhalation): improved
time after start of inhalation at which shaking of the mouth was stopped ([5]; Case 2, first inhalation, about 6.0 to 7.0% by volume hydrogen): about 55 minutes
forward-bending posture [5, 8]: improved to a reasonably upright state
shaking of the hands and legs [5, 8]: did not shake, or shook slightly
shaking of the mouth [5, 8]: shook slightly

Reference: patent US20200000843A1, “COMPOSITION FOR IMPROVEMENT OR PREVENTION OF PARKINSONIAN SYNDROME” (MiZ Company Limited, priority 2018, published 2020)
